Literature values in patent publication US11532831B1, “Redox-active compounds and uses thereof” (Palo Alto Research Center Incorporated, priority 2021, dated 2022).

Tests used:
[1] = cited from earlier work
[2] = on platinum (footnote); cited from earlier work

Substance	Solubility at pH 7 [1]	Kinetic rate constant [2]
bis(trimethylammoniopropyl)ferrocene [BTMAP-Fc]	1.9M	
ethylenediaminetetraacetatoferrate(2-) (Fe(II)-EDTA)/ethylenediaminetetraacetatoferrate(1-) (Fe(III)-EDTA) [Fe(EDTA)]		0.026 cm/s
iron(II) (Fe^2+)/iron(III) (Fe^3+) [Fe^2+/Fe^3+]	insoluble	
